According to patent US20230273228A1, “Diagnostic Method and Compounds for the Treatment of Infections Caused by a Pathogen” (priority 2020, published 2023):

Columns and labels:
Type in all cases: in vivo, Golden Syrian Hamster
[1] = tested on: SARS-CoV-2; test: Body weight variation of hamsters infected with SARS-CoV-2
[2] = tested on: TNF-α; test: Cytokine/chemokine profile by qRT-PCR in lung tissues and blood of SARS-CoV-2 infected hamsters
[3] = tested on: SARS-CoV-2; test: Viral load determination by quantitative real-time RT-PCR in tissues of infected hamsters

## CC/C=C\C/C=C\C[C@H](O)\C=C/C=C/C=C/[C@H](O)C/C=C\CCC(=O)OC [MaR1 ME, Methyl 7R,14S-dihydroxy-4Z,8E,10E,12Z,16Z,19Z-docosahexaenoate]
[1]; MaR1 ME 0.05 and 0.5 mg/kg i.p. twice daily
  Improvement in weight loss, dependence on dose: dose dependent
[1]; SARS-CoV-2 infected hamsters, MaR1 ME 0.05 and 0.5 mg/kg i.p., Lipinova 1.20 mg/kg by gavage, twice daily
  Loss of body weight compared with infected untreated animals: decreases significantly
[1]; highest dose of MaR1 ME (0.5 mg/kg i.p. twice daily from day 2 post inoculation), SARS-CoV-2 infected hamsters
  Body weight loss: less than 5%
[2]
  Impact on the chemokine and cytokine profile in infected animals: significant impact
[2]; lung tissue, 4, 7 and 14 dpi
  Levels of TNF-α in the lungs compared with untreated animals: significantly lower
[3]
  Impact on viral load in tissues: significant impact
[3]; after a few days of treatment
  Viral load in the lungs: significantly reduced
